Several values for one entry are separate records, joined by “and”; a condition that tells them apart may be missing. Equal entries are not always repeated. Where two headings read alike, the source gives them in different places. Starred links: 1 amine or outer side, 2 acyl side, 3 side chain; linkers in the order of their positions; H or OH if unused. Residues, ends and D or L forms follow the SMILES beside them. Groups on a side chain read outwards from the residue. *: point of attachment. TTDA(Palmitoyl) = CCCCCCCCCCCCCCCC(=O)NCCCOCCOCCOCCCN*; γGlu = O=C(O)[C@H](CCC(=O)[*:2])N[*:1]; Palmitoyl = CCCCCCCCCCCCCCCC(=O)*; Suc = O=C(CCC(=O)[*:2])[*:1]
Assays:
[1] = Adipose tissue and liver weights in DIO mice at the end of the experiment; format: in vivo, C57BL/6 mice; settings: 5 mg/kg SC twice a day, 2 weeks, n = 10, mean ± SEM
From the text: (§1) From 8 weeks of age, the mice were fed in house made high-fat (HF) diet to induce obesity. […] After twelve weeks of HF-diet feeding, two weeks of SC administration of lipidized PrRP analogs was initiated while the mice were kept on the HF diet. The following experimental groups were established: […] Food intake and BW were monitored daily during the dosing period. At the end of the experiment, the mice were sacrificed by decapitation. The trunk blood was collected, and the blood plasma was separated and stored at -20°C. The visceral adipose tissues (VAT) (from abdominal part), subcutaneous adipose tissues (SCAT) (all adipose tissue depots under the skin), perirenal adipose tissues, interscapular brown adipose tissues (BAT), and livers of all of the mice were dissected, weighed, flash-frozen in liquid nitrogen, and stored at -70°C for later extraction of RNA.

[2] = Hormonal and biochemical (metabolic) parameters in blood of DIO mice; format: in vivo, C57BL/6 mice; settings: mean ± SEM; for Glucose: blood; for Glucose / FFA / Insulin / Leptin / T Chol (total cholesterol) / Triglycerides: 5 mg/kg SC twice a day, 2 weeks; for HOMA index: fasting glucose x fasting insulin / 22.5, 2 weeks; for FFA / Insulin / Leptin / T Chol (total cholesterol) / Triglycerides: plasma
From the text: as §1, with “RNA. The plasma insulin concentrations were measured using an RIA assay (Millipore, St. Charles, MI, USA), and the leptin concentrations were determined by ELISA (Millipore, St. Charles, MI, USA). The blood glucose levels were measured using a Glucocard glucometer (Arkray, Kyoto, Japan). The plasma triglyceride levels were measured using a quantitative enzymatic reaction (Sigma, St. Louis, MO, USA), and the free fatty acids (FFA) levels were determined using a colorimetric assay (Roche, Mannheim, Germany). Cholesterol was determined by colorimetric assay (Erba Lachema, Brno, Czech Republic). All measurements were performed according to the manufacturer's instructions.” for “RNA.”

human NPFF2 = biological target: T1, human NPFF2 (Homo sapiens, UniProt Q9Y5X5); experiment: Competitive binding of 125I-1DMe to human NPFF2 receptor membranes; settings: for % binding human PrRP31 (NPFF2): Ki relative to human PrRP31 = 100
T1 construct: purchased Perkin Elmer; host or cells: CHO-K1 cell membranes
Protocol: (§2) CHO-K1 cells expressing the GPR10 receptor (Thermo Fisher Scientific Inc., Waltham, MA, USA) were grown according to the manufacturer's instructions. Saturation and competitive binding experiments were performed according to the methods of Motulsky and Neubig. […] The experiments were performed on plated cells that were incubated for 60 min at 25°C. Non-specific binding was determined using 10^−5 M PrRP31. The binding assays involving human NPFF2 receptor membranes obtained from Perkin Elmer were performed as described in [18].
(§3) Data are presented as the means ± SEM. The competitive binding curves were plotted using GraphPad software (San Diego, CA, USA), and the best fits were compared for single-binding-site models (IC50 values were obtained from nonlinear regression analysis). Inhibition constants (Ki) were calculated from the IC50 values using the Cheng-Prusoff equation [23]. The concentration of the radioligand was 0.1 nM for cell membranes of CHO-K1 cells overexpressing NPFF2 and 0.03 nM for CHO-K1 cells overexpressing GPR10.

[3] = Body weight of DIO mice during 2-week SC treatment; format: in vivo, C57BL/6 mice; settings: for Decrease of average BW at the end of the experiment: 5 mg/kg SC twice a day, 2 weeks
From the text: Inbred C57BL/6 male mice that were 3 weeks old were obtained from Charles River Laboratories (Sulzfeld, Germany). […] From 8 weeks of age, the mice were fed in house made high-fat (HF) diet to induce obesity. […] After twelve weeks of HF-diet feeding, two weeks of SC administration of lipidized PrRP analogs was initiated while the mice were kept on the HF diet. The following experimental groups were established: […] Food intake and BW were monitored daily during the dosing period.

GPR10 [4] = biological target: T2, GPR10 (Homo sapiens, UniProt P49683); experiment: Competitive binding of 125I-human PrRP31 to plated CHO-K1 cells expressing GPR10; set-up: host or cells: CHO-K1; settings: for Ki: CHO-K1 cells, 0.03 nM radioligand, 60 min 25°C, Cheng-Prusoff, mean ± SEM of at least three experiments, SEM; for % binding human PrRP31 (GPR10): Ki relative to human PrRP31 = 100; for 125I-human PrRP31 binding to human GPR10, Ki: single experiments (replicates listed below each other)
T2 sequence (P49683 1-370): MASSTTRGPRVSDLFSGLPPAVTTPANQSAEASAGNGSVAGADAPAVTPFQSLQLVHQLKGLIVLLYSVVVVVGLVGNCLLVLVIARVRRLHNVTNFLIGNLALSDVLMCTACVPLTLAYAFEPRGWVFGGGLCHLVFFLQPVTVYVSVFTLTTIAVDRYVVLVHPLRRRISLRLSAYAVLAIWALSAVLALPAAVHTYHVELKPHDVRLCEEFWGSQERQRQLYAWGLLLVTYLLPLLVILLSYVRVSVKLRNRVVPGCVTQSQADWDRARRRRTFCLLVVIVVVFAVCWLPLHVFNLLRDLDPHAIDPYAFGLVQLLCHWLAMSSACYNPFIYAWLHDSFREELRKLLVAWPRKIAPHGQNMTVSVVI
Protocol: as §2, §3

GPR10 [5] = biological target: T2, GPR10; experiment: Beta-lactamase-dependent FRET assay (bla reporter gene) in CHO-K1 cells overexpressing GPR10; format: cell-based; set-up: expressed in transfected cells; host or cells: CHO-K1
Protocol: CHO-K1 cells overexpressing GPR10 were plated at 40,000 cells/well in 128 μl of assay medium (DMEM containing 10% dialyzed FBS, 0.1 mM NEAA, 25 mM HEPES, 1% penicillin/streptomycin, and 2 mM L-glutamine) in a 96-well plate and were incubated for 20 h at 37°C/5% CO2. The assay was performed according to the manufacturer's protocol.
The results from the lactamase assay were analyzed using nonlinear regression by log agonist vs. response using GraphPad software.

[6] = average of the single experiments, read-out: Activation of bla reporter gene in GPR10 overexpressing cells, EC50, AVERAGE
[7] = average of the single experiments

T1 sequence (Q9Y5X5 whole entry): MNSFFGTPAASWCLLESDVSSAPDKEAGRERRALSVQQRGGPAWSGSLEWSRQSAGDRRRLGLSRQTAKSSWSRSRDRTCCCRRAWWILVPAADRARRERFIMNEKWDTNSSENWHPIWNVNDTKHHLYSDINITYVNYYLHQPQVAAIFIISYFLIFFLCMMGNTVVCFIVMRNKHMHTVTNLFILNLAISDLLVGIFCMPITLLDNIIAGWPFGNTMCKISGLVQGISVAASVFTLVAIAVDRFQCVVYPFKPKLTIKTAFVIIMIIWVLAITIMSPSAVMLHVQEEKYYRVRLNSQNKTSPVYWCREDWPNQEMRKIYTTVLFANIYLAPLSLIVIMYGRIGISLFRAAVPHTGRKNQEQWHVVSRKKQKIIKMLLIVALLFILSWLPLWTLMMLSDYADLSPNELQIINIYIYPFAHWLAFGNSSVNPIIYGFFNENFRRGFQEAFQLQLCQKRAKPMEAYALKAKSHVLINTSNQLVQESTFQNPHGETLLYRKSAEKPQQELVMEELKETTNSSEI

Structure (SMILES) | Liver weight [1] | Perirenal AT [1] | Total AT [1] | Glucose [2] | HOMA index [2] | FFA [2] | Insulin [2] | Leptin [2] | T Chol (total cholesterol) [2] | Triglycerides [2] | % binding human PrRP31 (NPFF2) (human NPFF2) | Ki (human NPFF2; membranes of CHO-K1 cells overexpressing NPFF2, 0.1 nM radioligand, Cheng-Prusoff, mean ± SEM, SEM) | Decrease of average BW at the end of the experiment [3] | Ki (GPR10 [4]) | % binding human PrRP31 (GPR10) (GPR10 [4]) | 125I-human PrRP31 binding to human GPR10, Ki (GPR10 [4]) | EC50 (GPR10 [5]; [6]) | Ki (human NPFF2; [7]) | Effect on BW ([3]; two weeks of SC treatment, 5 mg/kg twice a day, in words) | EC50 (GPR10 [5]; CHO-K1 cells, mean ± SEM of at least three experiments, SEM, read-out: Activation of bla reporter gene in GPR10 overexpressing cells, EC50)
CCCCCCCCCCCCCCCC(=O)N[C@@H](CCC(=O)NCCCC[C@H](NC(=O)[C@@H](NC(=O)[C@H](CCC(=O)O)NC(=O)[C@H](CCSC)NC(=O)[C@H](CO)NC(=O)[C@H](Cc1c[nH]cn1)NC(=O)[C@H](CCCNC(=N)N)NC(=O)[C@H](Cc1c[nH]cn1)NC(=O)[C@@H](NC(=O)[C@H](CCCNC(=N)N)NC(=O)[C@@H](N)CO)[C@@H](C)O)[C@@H](C)CC)C(=O)N[C@H](C(=O)N1CCC[C@H]1C(=O)N[C@@H](CC(=O)O)C(=O)N[C@H](C(=O)N[C@@H](CC(N)=O)C(=O)N1CCC[C@H]1C(=O)N[C@@H](C)C(=O)N[C@@H](Cc1c[nH]c2ccccc12)C(=O)N[C@@H](Cc1ccc(O)cc1)C(=O)N[C@@H](C)C(=O)N[C@@H](CO)C(=O)N[C@@H](CCCNC(=N)N)C(=O)NCC(=O)N[C@H](C(=O)N[C@@H](CCCNC(=N)N)C(=O)N1CCC[C@H]1C(=O)N[C@H](C(=O)NCC(=O)N[C@@H](CCCNC(=N)N)C(=O)N[C@@H](Cc1ccccc1)C(N)=O)C(C)C)[C@@H](C)CC)[C@@H](C)CC)[C@@H](C)O)C(=O)O [analog 1] (H-SRTHRHSMEIK([γGlu-Palmitoyl])TPDINPAWYASRGIRPVGRF-NH2; N-terminus assumed) | 1.27 ± 0.05 g | 2.72 ± 0.11 % of BW | 14.59 ± 0.32 % of BW | 7.12 ± 0.36 mmol/L | 85.70 ± 0.39 | 0.54 ± 0.03 mmol/L | 1.57 ± 0.14 ng/mL | 22.67 ± 2.72 ng/mL | 4.26 ± 0.22 mmol/L | 0.44 ± 0.03 mg/mL | 128% | 39.1 ± 23.1 nM | 12% | 5.01 ± 1.03 nM | 91% | 9.92 nM and 5.47 nM and 4.23 nM and 3.01 nM and 1.75 nM and 3.77 nM and 6.96 nM | 0.0463 nM | – | – | –
CCCCCCCCCCCCCCCC(=O)NCCCOCCOCCOCCCNC(=O)CCC(=O)NCCCC[C@H](NC(=O)[C@@H](NC(=O)[C@H](CCC(=O)O)NC(=O)[C@H](CCSC)NC(=O)[C@H](CO)NC(=O)[C@H](Cc1c[nH]cn1)NC(=O)[C@H](CCCNC(=N)N)NC(=O)[C@H](Cc1c[nH]cn1)NC(=O)[C@@H](NC(=O)[C@H](CCCNC(=N)N)NC(=O)[C@H](CO)NC(=O)CCC(=O)NCCCOCCOCCOCCCNC(=O)CCCCCCCCCCCCCCC)[C@@H](C)O)[C@@H](C)CC)C(=O)N[C@H](C(=O)N1CCC[C@H]1C(=O)N[C@@H](CC(=O)O)C(=O)N[C@H](C(=O)N[C@@H](CC(N)=O)C(=O)N1CCC[C@H]1C(=O)N[C@@H](C)C(=O)N[C@@H](Cc1c[nH]c2ccccc12)C(=O)N[C@@H](Cc1ccc(O)cc1)C(=O)N[C@@H](C)C(=O)N[C@@H](CO)C(=O)N[C@@H](CCCNC(=N)N)C(=O)NCC(=O)N[C@H](C(=O)N[C@@H](CCCNC(=N)N)C(=O)N1CCC[C@H]1C(=O)N[C@H](C(=O)NCC(=O)N[C@@H](CCCNC(=N)N)C(=O)N[C@@H](Cc1ccccc1)C(N)=O)C(C)C)[C@@H](C)CC)[C@@H](C)CC)[C@@H](C)O [analog 3] ({TTDA(Palmitoyl)-Suc}-SRTHRHSMEIK([Suc-TTDA(Palmitoyl)])TPDINPAWYASRGIRPVGRF-NH2) | 1.58 ± 0.09 g | 3.09 ± 0.16 % of BW | 16.13 ± 0.38 % of BW | 7.91 ± 0.46 mmol/L | 163.13 ± 1.06 | 0.62 ± 0.03 mmol/L | 2.69 ± 0.30 ng/mL | 40.30 ± 5.57 ng/mL | 4.86 ± 0.17 mmol/L | 0.63 ± 0.05 mg/mL | 580% | – | – | 32.4 ± 3.57 nM | 14% | 39 nM and 26.7 nM and 31.5 nM | – | 8.63 nM | did not have any significant effects | 0.284 ± 0.054 nM
CCCCCCCCCCCCCCCC(=O)NCCCOCCOCCOCCCNC(=O)CCC(=O)NCCCC[C@H](NC(=O)[C@@H](NC(=O)[C@H](CCC(=O)O)NC(=O)[C@H](CCSC)NC(=O)[C@H](CO)NC(=O)[C@H](Cc1c[nH]cn1)NC(=O)[C@H](CCCNC(=N)N)NC(=O)[C@H](Cc1c[nH]cn1)NC(=O)[C@@H](NC(=O)[C@H](CCCNC(=N)N)NC(=O)[C@@H](N)CO)[C@@H](C)O)[C@@H](C)CC)C(=O)N[C@H](C(=O)N1CCC[C@H]1C(=O)N[C@@H](CC(=O)O)C(=O)N[C@H](C(=O)N[C@@H](CC(N)=O)C(=O)N1CCC[C@H]1C(=O)N[C@@H](C)C(=O)N[C@@H](Cc1c[nH]c2ccccc12)C(=O)N[C@@H](Cc1ccc(O)cc1)C(=O)N[C@@H](C)C(=O)N[C@@H](CO)C(=O)N[C@@H](CCCNC(=N)N)C(=O)NCC(=O)N[C@H](C(=O)N[C@@H](CCCNC(=N)N)C(=O)N1CCC[C@H]1C(=O)N[C@H](C(=O)NCC(=O)N[C@@H](CCCNC(=N)N)C(=O)N[C@@H](Cc1ccccc1)C(N)=O)C(C)C)[C@@H](C)CC)[C@@H](C)CC)[C@@H](C)O [analog 2] (H-SRTHRHSMEIK([Suc-TTDA(Palmitoyl)])TPDINPAWYASRGIRPVGRF-NH2; N-terminus assumed) | 1.31 ± 0.06 g | 2.73 ± 0.17 % of BW | 15.70 ± 0.53 % of BW | 7.26 ± 0.31 mmol/L | 86.27 ± 0.64 | 0.52 ± 0.02 mmol/L | 1.55 ± 0.27 ng/mL | 23.64 ± 3.54 ng/mL | 3.96 ± 0.26 mmol/L | 0.44 ± 0.04 mg/mL | 761% | – | 11.75% | 3.79 ± 0.47 nM | 121% | 4.698 nM and 3.31 nM and 3.352 nM | 0.0835 nM | 6.57 nM | – | –

Source: paper PMC5562305, “Impact of novel palmitoylated prolactin-releasing peptide analogs on metabolic changes in mice with diet-induced obesity” (PLoS ONE, 2017)
